In patent US4312867A, “Antibacterial compounds, processes for their preparation and compositions containing them” (Beecham Group Limited, priority 1979, dated 1982):
In brackets after ≈: the same amount, converted by molar mass. Where two headings read alike, the source gives them in different places.

Tests used:
[1] = tested on: Past multocida PA1; assay: MIC veterinary bacteria (Table 2), serial dilution in agar; type: cell-based; conditions: diagnostic sensitivity test agar
[2] = Serum binding by ultrafiltration of porcine serum; type: in vitro ADME; conditions: pig, 8 mcg/ml, microbiological assay, read-out: % bound to pig serum (converted)
Description: Serum binding was assessed by ultrafiltration of porcine serum containing compounds at 8 mcg/ml, and through an Amicon CF50A ultrafiltration cone. Separation of ultrafiltrate was achieved by centrifugation. Unbound concentrations of compound were measured in the ultrafiltrate by microbiological assay (B. subtilis ATCC 6633) against standards prepared in saline.

[3] = tested on: Bord bronchiseptica B09; assay: MIC veterinary bacteria (Table 2), serial dilution in agar; type: cell-based; conditions: diagnostic sensitivity test agar
[4] = tested on: Strep uberis SPU1; assay: as above; type: cell-based; conditions: diagnostic sensitivity test agar
[5] = tested on: P. mirabilis 889; assay: MIC human bacteria (Table 1), serial dilution in nutrient agar; type: cell-based; conditions: Proteus mirabilis; P. mirabilis 889; nutrient agar with 5% chocolated horse blood; read-out: MIC
[6] = tested on: Bord bronchiseptica B08; assay: MIC veterinary bacteria (Table 2), serial dilution in agar; type: cell-based; conditions: diagnostic sensitivity test agar
[7] = tested on: Staph aureus Oxford; assay: as above; type: cell-based; conditions: Staphylococcus aureus; Staph aureus Oxford; diagnostic sensitivity test agar; read-out: MIC
[8] = tested on: S. typhimurium S18; assay: as above; type: cell-based; conditions: Salmonella enterica, diagnostic sensitivity test agar
[9] = tested on: Strep pneumoniae CN33; assay: MIC human bacteria (Table 1), serial dilution in nutrient agar; type: cell-based; conditions: nutrient agar with 5% chocolated horse blood
[10] = tested on: Ps. aeruginosa 10662; assay: as above; type: cell-based; conditions: Pseudomonas aeruginosa, nutrient agar with 5% chocolated horse blood
[11] = tested on: Sarcina lutea 8340; assay: as above; type: cell-based; conditions: nutrient agar with 5% chocolated horse blood
[12] = tested on: Strep pyogenes C 2761; assay: as above; type: cell-based; conditions: nutrient agar with 5% chocolated horse blood
[13] = tested on: Strep agalactiae SPA1; assay: MIC veterinary bacteria (Table 2), serial dilution in agar; type: cell-based; conditions: diagnostic sensitivity test agar
[14] = tested on: Staph aureus B4 (pen. resis); assay: as above; type: cell-based; conditions: Staphylococcus aureus; Staph aureus B4 (pen. resis); diagnostic sensitivity test agar; read-out: MIC
[15] = tested on: E. coli ESS; assay: MIC human bacteria (Table 1), serial dilution in nutrient agar; type: cell-based; conditions: Escherichia coli; E. coli ESS; nutrient agar with 5% chocolated horse blood; read-out: MIC
[16] = tested on: Staph aureus Oxford; assay: as above; type: cell-based; conditions: Staphylococcus aureus, nutrient agar with 5% chocolated horse blood
[17] = tested on: K. aerogenes A; assay: as above; type: cell-based; conditions: Klebsiella aerogenes, nutrient agar with 5% chocolated horse blood
[18] = tested on: E. coli NCTC 10418; assay: as above; type: cell-based; conditions: Escherichia coli, NCTC10418; E. coli NCTC 10418; nutrient agar with 5% chocolated horse blood; read-out: MIC
[19] = tested on: Staph aureus 152 (pen. sens); assay: MIC veterinary bacteria (Table 2), serial dilution in agar; type: cell-based; conditions: Staphylococcus aureus, diagnostic sensitivity test agar
[20] = tested on: Pasteurella multocida 1633; assay: MIC human bacteria (Table 1), serial dilution in nutrient agar; type: cell-based
[21] = tested on: E. coli E1; assay: MIC veterinary bacteria (Table 2), serial dilution in agar; type: cell-based; conditions: Escherichia coli, diagnostic sensitivity test agar
[22] = tested on: M. suipneumoniae LABER; assay: anti-mycoplasmal MIC, Friis broth solidified with agarose (Table 4); type: cell-based; conditions: Mesomycoplasma hyopneumoniae, 144 h, 6 days at 37° C.
[23] = tested on: Bacillus subtilis 6633; assay: MIC human bacteria (Table 1), serial dilution in nutrient agar; type: cell-based; conditions: nutrient agar with 5% chocolated horse blood
[24] = tested on: Strep suis (group D) SPS11; assay: MIC veterinary bacteria (Table 2), serial dilution in agar; type: cell-based; conditions: diagnostic sensitivity test agar
[25] = tested on: M. suipneumoniae Str. 11; assay: anti-mycoplasmal MIC, Friis broth solidified with agarose (Table 4); type: cell-based; conditions: Mesomycoplasma hyopneumoniae
[26] = tested on: Corynebacterium xerosis 9755; assay: MIC human bacteria (Table 1), serial dilution in nutrient agar; type: cell-based; conditions: nutrient agar with 5% chocolated horse blood
[27] = tested on: S. dublin S7; assay: MIC veterinary bacteria (Table 2), serial dilution in agar; type: cell-based; conditions: Salmonella enterica, diagnostic sensitivity test agar
[28] = tested on: Past multocida PA2; assay: as above; type: cell-based; conditions: diagnostic sensitivity test agar
[29] = tested on: E. coli NCTC 10418; assay: as above; type: cell-based; conditions: Escherichia coli, NCTC10418; E. coli NCTC 10418; diagnostic sensitivity test agar; read-out: MIC
[30] = tested on: Strep pyogenes A 64/848; assay: MIC human bacteria (Table 1), serial dilution in nutrient agar; type: cell-based; conditions: nutrient agar with 5% chocolated horse blood
[31] = tested on: Neisseria catarrhalis 1502; assay: as above; type: cell-based; conditions: nutrient agar with 5% chocolated horse blood
[32] = tested on: Strep pyogenes B 2788; assay: as above; type: cell-based; conditions: nutrient agar with 5% chocolated horse blood
[33] = tested on: Strep faecalis I; assay: as above; type: cell-based; conditions: nutrient agar with 5% chocolated horse blood
[34] = tested on: Staph aureus Russell; assay: as above; type: cell-based; conditions: Staphylococcus aureus, nutrient agar with 5% chocolated horse blood
[35] = tested on: Haemophilus influenzae Wy21; assay: as above; type: cell-based
[36] = tested on: Strep dysgalaciae SPD1; assay: MIC veterinary bacteria (Table 2), serial dilution in agar; type: cell-based; conditions: diagnostic sensitivity test agar
[37] = tested on: Haemophilus influenzae Q1; assay: MIC human bacteria (Table 1), serial dilution in nutrient agar; type: cell-based
[38] = tested on: M. hyorhinis ATCC 25021; assay: anti-mycoplasmal MIC, Friis broth solidified with agarose (Table 4); type: cell-based; conditions: Mesomycoplasma hyorhinis, ATCC25021, 144 h, 6 days at 37° C.
[39] = tested on: Erysipelothrix rhusiopathiae NCTC 8163; assay: MIC veterinary bacteria (Table 2), serial dilution in agar; type: cell-based; conditions: NCTC8163
[40] = tested on: Staph aureus W2827; assay: MIC human bacteria (Table 1), serial dilution in nutrient agar; type: cell-based; conditions: Staphylococcus aureus, nutrient agar with 5% chocolated horse blood
[41] = tested on: Corynebacterium pyogenes CY1; assay: MIC veterinary bacteria (Table 2), serial dilution in agar; type: cell-based; conditions: Trueperella pyogenes, diagnostic sensitivity test agar

Compound: C/C(=C\C(=O)OCCCS(=O)(=O)N(C)C)CC1OCC(CC2OC2C(C)C(C)O)C(O)C1O (stereo not shown) [Example 4, 3-N,N-Dimethylsulphamoylpropyl monate A]
- MIC [1]: 0.625 µg/mL (≈ 1.27 µM)
- fraction unbound [2]: 0.053
- MIC [3]: 20 µg/mL (≈ 40.5 µM)
- MIC [4]: 2.5 µg/mL (≈ 5.06 µM)
- MIC [5]: > 100 µg/mL
- MIC [6]: 80 µg/mL (≈ 162 µM)
- MIC [7]: 2.5 µg/mL (≈ 5.06 µM)
- MIC [8]: > 80 µg/mL
- MIC [9]: 1 µg/mL (≈ 2.03 µM)
- MIC [10]: > 100 µg/mL
- MIC [11]: No Growth
- MIC [12]: 5 µg/mL (≈ 10.1 µM)
- MIC [13]: 2.5 µg/mL (≈ 5.06 µM)
- MIC [14]: 5 µg/mL (≈ 10.1 µM)
- MIC [15]: 2.5 µg/mL (≈ 5.06 µM)
- MIC [16]: 10 µg/mL (≈ 20.3 µM)
- MIC [17]: > 100 µg/mL
- MIC [18]: > 100 µg/mL
- MIC [19]: 2.5 µg/mL (≈ 5.06 µM)
- MIC ([20]; Pasteurella multocida, 1633): 0.5 µg/mL (≈ 1.01 µM)
- MIC [21]: > 80 µg/mL
- MIC [22]: 500 µg/mL (≈ 1010 µM)
- MIC [23]: 2.5 µg/mL (≈ 5.06 µM)
- MIC [24]: 40 µg/mL (≈ 81 µM)
- MIC ([25]; 144 h, M. suipneumoniae Str. 11, 6 days at 37° C., read-out: MIC): 500 µg/mL (≈ 1010 µM)
- MIC [26]: No Growth
- MIC [27]: > 80 µg/mL
- MIC [28]: 0.312 µg/mL (≈ 0.632 µM)
- MIC [29]: > 80 µg/mL
- MIC [30]: 2.5 µg/mL (≈ 5.06 µM)
- MIC [31]: 1 µg/mL (≈ 2.03 µM)
- MIC [32]: 2.5 µg/mL (≈ 5.06 µM)
- MIC [33]: > 100 µg/mL
- MIC [34]: 10 µg/mL (≈ 20.3 µM)
- MIC ([35]; Haemophilus influenzae, WY21): 0.1 µg/mL (≈ 0.203 µM)
- MIC [36]: 2.5 µg/mL (≈ 5.06 µM)
- MIC ([37]; Haemophilus influenzae, Q1): 0.1 µg/mL (≈ 0.203 µM)
- MIC [38]: 250 µg/mL (≈ 506 µM)
- MIC ([39]; Erysipelothrix rhusiopathiae NCTC 8163, diagnostic sensitivity test agar, read-out: MIC): > 80 µg/mL
- MIC [40]: 10 µg/mL (≈ 20.3 µM)
- MIC [41]: > 80 µg/mL

Compound: C/C(=C\C(=O)OC(C)CCCCCS(N)(=O)=O)CC1OCC(CC2OC2C(C)C(C)O)C(O)C1O (stereo not shown) [Example 5, 7-Sulphamoylhept-2-yl monate A]
- MIC [1]: 0.625 µg/mL (≈ 1.2 µM)
- fraction unbound [2]: 0.354
- MIC [3]: 10 µg/mL (≈ 19.2 µM)
- MIC [4]: 0.625 µg/mL (≈ 1.2 µM)
- MIC [5]: > 100 µg/mL
- MIC [6]: 40 µg/mL (≈ 76.7 µM)
- MIC [7]: 1.25 µg/mL (≈ 2.4 µM)
- MIC [8]: > 80 µg/mL
- MIC [9]: 1 µg/mL (≈ 1.92 µM)
- MIC [10]: > 100 µg/mL
- MIC [11]: No Growth
- MIC [12]: 2.5 µg/mL (≈ 4.79 µM)
- MIC [13]: 1.25 µg/mL (≈ 2.4 µM)
- MIC [14]: 5 µg/mL (≈ 9.58 µM)
- MIC [15]: 2.5 µg/mL (≈ 4.79 µM)
- MIC [16]: 10 µg/mL (≈ 19.2 µM)
- MIC [17]: > 100 µg/mL
- MIC [18]: > 100 µg/mL
- MIC [19]: 1.25 µg/mL (≈ 2.4 µM)
- MIC ([20]; Pasteurella multocida 1633, nutrient agar with 5% chocolated horse blood, read-out: MIC): 2.5 µg/mL (≈ 4.79 µM)
- MIC [21]: > 80 µg/mL
- MIC [22]: 250 µg/mL (≈ 479 µM)
- MIC [23]: 2.5 µg/mL (≈ 4.79 µM)
- MIC [24]: 5 µg/mL (≈ 9.58 µM)
- MIC ([25]; STR.11, 144 h): 250 µg/mL (≈ 479 µM)
- MIC [26]: No Growth
- MIC [27]: > 80 µg/mL
- MIC [28]: 0.312 µg/mL (≈ 0.598 µM)
- MIC [29]: > 80 µg/mL
- MIC [30]: 2.5 µg/mL (≈ 4.79 µM)
- MIC [31]: 1 µg/mL (≈ 1.92 µM)
- MIC [32]: 2.5 µg/mL (≈ 4.79 µM)
- MIC [33]: > 100 µg/mL
- MIC [34]: 10 µg/mL (≈ 19.2 µM)
- MIC ([35]; Haemophilus influenzae Wy21, nutrient agar with 5% chocolated horse blood, read-out: MIC): 0.2 µg/mL (≈ 0.383 µM)
- MIC [36]: 0.625 µg/mL (≈ 1.2 µM)
- MIC ([37]; Haemophilus influenzae Q1, nutrient agar with 5% chocolated horse blood, read-out: MIC): 0.2 µg/mL (≈ 0.383 µM)
- MIC [38]: 250 µg/mL (≈ 479 µM)
- MIC ([39]; Erysipelothrix rhusiopathiae): 40 µg/mL (≈ 76.7 µM)
- MIC [40]: 25 µg/mL (≈ 47.9 µM)
- MIC [41]: 80 µg/mL (≈ 153 µM)
